Assay results as given in patent US20240058335A1, “METHODS FOR TREATMENT OF CANCER USING ABL INHIBITORS AND DRUGS TARGETING THE MEVALONATE PATHWAY” (Duke University, priority 2021, published 2024).

Tested on: lung cancer cells (PC9, PC9 GR4, H460, H358)
Assay: Seahorse XF Analyzer Mito Stress Test (OCR: basal respiration, maximal respiration, ATP production)
Type: cell-based, human
Settings: IC50 doses, 24 hours; PC9, PC9 GR4, H460, H358
Description: (FIGS. 2A-2D) Seahorse XF Analyzer Mito Stress Test analysis of mitochondrial basal respiration, maximal respiration, and ATP production as measured by changes in oxygen consumption rate (OCR). […] (FIG. 2E) Mitochondrial basal respiration, maximal respiration, and ATP production as measured by Seahorse XF Analyzer's Mito Stress Test for PC9 cells harboring shRNAs against ABL1/ABL2 (shAA) and non-targeting control (shSCR). (FIGS. 2F-2G) Mitochondrial ROS (MitoROS) release as measured by FACS analysis of median fluorescent intensity (MFI) using Mitosox probe. […] Data are mean±SEM. […] Seahorse XF Analyzer Mito Stress Test analysis of mitochondrial basal respiration, maximal respiration, and ATP production as measured by changes in oxygen consumption rate (OCR) in the indicated lung cancer cells: (FIG. 8A) PC9; (FIG. 8B) PC9 GR4; (FIG. 8C) H460. […] Doses correspond to IC50 dose for each drug in the corresponding cell line. In each graph, for each of Basal Respiration, Maximal Respiration, and ATP production, data is shown from left to right for DMSO, GNF5, and Nilotinib. […] Cells were treated with IC50 doses for 24 hours (n=3). Data are mean±SEM. […] SEAHORSE MEASUREMENTS. Basal and maximal oxygen consumption rate and ATP production were measured using a Mito Stress test Kit and XF96 Extracellular Flux Analyzer (Seahorse Bioscience), according to manufacturer's instructions. Cells were plated in XF96 plates at 10,000 cells per well on Day 0. […] The plate was incubated in a non-CO2 incubator at 37° C. for 1 hr to equilibrate.

O=C(NCCO)c1cccc(-c2cc(Nc3ccc(OC(F)(F)F)cc3)ncn2)c1 [GNF5]
mitochondrial function (basal respiration, maximal respiration, ATP production; OCR): greatly decreased
